The numbers were not newly measured in patent publication US20250288585A1, “SYNERGISTIC COMPOSITIONS FOR ENHANCED HAIR GROWTH AND METHODS FOR TREATING HAIR LOSS” (The Johns Hopkins University, priority 2024, published 2025), which cites them from elsewhere.

The structures appear in SMILES notation.

For data set [1] the following is noted: liposomal hydrogel system.
In data set [2] the test system is subjects with androgenetic alopecia. As to conditions: topical tretinoin alone.
Data set [3] has as its system follicular sulfotransferase. As to conditions: topical 0.1% tretinoin, plucked hairs, in vitro.

Regarding `Nc1cc(N2CCCCC2)nc(N)[n+]1[O-]` [minoxidil], the “permeation through skin ex vivo” value in data set [1] is recorded as “enhanced the permeation”.

Take `CC1=C(/C=C/C(C)=C/C=C/C(C)=C/C(=O)O)C(C)(C)CCC1` [tretinoin, all-trans-retinoic acid]: in data set [2], the “subjects with some hair regrowth” value is on record as “approximately 58%”. Besides, in data set [3], the “effect on expression of follicular sulfotransferase” value is “influences the expression of follicular sulfotransferase”. The “permeation through skin ex vivo” value in data set [1] was “retained on the skin”.
